In the METLIN SMRT retention time set (Domingo-Almenara et al. 2019) one finds RP-LC retention time data, which are given here for 80 compounds.

This data set is described as follows: gradient 5% acetonitrile 3 min, to 50% in 2 min, to 85% in 15 min, held 3 min, 100 µL/min. The note with it: column: Zorbax Extend-C18 2.1 x 50 mm; eluents: water / acetonitrile, 0.1% formic acid. In outline: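 Values are retention times taken from adduct peaks that software picked and an analyst inspected. The pure standards were run as mixtures of ~100 molecules on HPLC linked to a quadrupole time-of-flight mass spectrometer, in positive and negative ionization mode. A Zorbax Extend-C18 column (2.1 × 50 mm, 1.8 μm) was used at 100 μL/min with water and acetonitrile, each including 0.1% formic acid.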
The compound `Cc1nn(-c2nc(-c3ccc(F)cc3)cs2)c(C)c1CC(=O)N1CCCC1` gave an RP-LC retention time of 1030 s.
In turn, `CCCCN(C)C(=O)C1CCN(c2cncnc2N2CCOCC2)CC1` came in with an RP-LC retention time of 614 s.
Turning to `CN1CCN(CCSC2Cc3cc(Cl)ccc3Sc3ccccc32)CC1` (stereo not given), the RP-LC retention time was determined as 761 s.
On to `COc1ccc(CNC(=O)C2=C3CCCN3c3ccc(F)cc3S2(=O)=O)cc1`, for which the RP-LC retention time is 876 s.
The compound `Cc1ccc(CNC(=O)CCCn2c(=O)c3sccc3n(CC(=O)N3CCCCC3C)c2=O)cc1` (stereo not given) gave an RP-LC retention time of 859 s.
Compound `Cc1cc(N2CCN(C(=O)c3c(F)cccc3F)CC2)nc(N2CCOCC2)n1` showed an RP-LC retention time of 613 s.
On to `CCN1CCN(c2c(S(=O)(=O)c3ccc(OC)cc3)cnc3cc(OC)c(OC)cc23)CC1`, for which the RP-LC retention time came out at 628 s.
For `CN1c2ccccc2C(=O)NC12CCN(C(=O)Nc1ccc(F)cc1)CC2` the value was 729 s.
Turning to `COc1ccc(-c2nc(N(Cc3ccco3)C3CCCCC3)c3ccccc3n2)cc1`, the RP-LC retention time came out at 1030 s.
Under `COCc1cc(=O)n(CC(=O)Nc2cc(Cl)ccc2C)c(N2CCOCC2)n1` stands 895 s.
Compound `O=C(NC1CCCCCCC1)C1CCN(C(=O)c2cc(-c3cccnc3)n[nH]2)CC1` returned an RP-LC retention time of 651 s.
Regarding `CCN1C(=O)c2ccccc2Oc2ccc(C(=O)N3CCN(c4cc(Cl)ccc4C)CC3)cc21`, the RP-LC retention time was 1190 s.
In turn, `O=C(COc1ccccc1F)NCC1(c2cccs2)CCOCC1` returned an RP-LC retention time of 790 s.
Compound `Cc1cc(C)cc(NC(=O)N2CCCC2c2nncn2C2CCCC2)c1` (stereo not given) came in with an RP-LC retention time of 722 s.
`COc1ccc(C2=C(C)C(N3CCC(C(=O)NC4CCCC4)CC3)=NS2(=O)=O)cc1` showed an RP-LC retention time of 780 s.
Take `COc1ccc(OCc2nc(CCN(C)C(=O)c3ccco3)no2)cc1`: the RP-LC retention time is 782 s.
In turn, `CCOC(=O)c1ccc(Nc2ncccc2S(N)(=O)=O)cc1` displayed an RP-LC retention time of 841 s.
In the case of `O=C(NCC1CCCO1)C1CCCN(c2nccnc2Sc2ccccc2)C1` (stereo not given), the RP-LC retention time came out at 860 s.
Under `Cc1ccc(C2c3[nH]c4ccccc4c3CCN2C(=O)C2CC2)cc1` (stereo not given) stands 1110 s.
`CCN1C(=O)C2(CCN(S(=O)(=O)c3ccc(F)c(C)c3)CC2)c2ccccc21` gave an RP-LC retention time of 1090 s.
Under `CC1(C)C(=O)NCCN1C(=O)CN1C(=O)c2ccccc2C1=O` stands 594 s; under `CC(=O)N1CCN(S(=O)(=O)c2cc3c4c(c2)CCC(=O)N4CCC3)CC1`, 647 s.
Under `COc1ccc(NC(=O)N2CCC(c3nc(C(=O)N(C)C)c(C)o3)CC2)c(OC)c1` stands 635 s.
As for `Cc1cc(C)cc(NC(=O)Cn2c(C(C)C)nc3c(c2=O)CCN(Cc2ccccc2)C3)c1`, the RP-LC retention time is 759 s.
The compound `Cc1ccc(NC(=O)N2CCC(n3c(-c4ccco4)nc4cccnc43)C2)cc1` (stereo not given) displayed an RP-LC retention time of 776 s.
Turning to `Cn1ccc2cc(CCC(=O)N3CCN(c4ccc(F)cc4)CC3)ccc21`, the RP-LC retention time was 951 s.
In the case of `CCOC(=O)c1cnc(N2CCN(c3ccccc3F)CC2)c2ccccc12`, the RP-LC retention time worked out at 1350 s.
For `O=C(Nc1cccnc1OC1CCNCC1)C1(c2ccccc2)CC1`, the RP-LC retention time was 646 s.
`O=S(=O)(c1ccc2c(c1)OCCO2)N1CCCn2nc(-c3cccs3)cc2C1` came in with an RP-LC retention time of 908 s.
As to `CCOC(=O)c1cc(S(=O)(=O)N2CCCC2C(=O)NC2CCCCCC2)cn1C` (stereo not given), the RP-LC retention time came to 968 s.
Compound `CCC(CO)NCc1ccc(-c2ccc(Cl)cc2Cl)o1` (stereo not given) had an RP-LC retention time of 692 s.
`COc1cc([C@H]2Oc3cc([C@@H]4Oc5cc(O)cc(O)c5C(=O)[C@@H]4O)ccc3O[C@@H]2CO)ccc1O` had an RP-LC retention time of 754 s.
With `CC(C)c1ccc(N2C(=O)C3N=NN(Cc4nc(-c5cccc(C(F)(F)F)c5)no4)C3C2=O)cc1` (stereo not given), the RP-LC retention time came to 1260 s.
As for `CC1CCN(CC2CCN(S(=O)(=O)c3ccccc3Cl)CC2)CC1`, the RP-LC retention time amounted to 664 s.
For `COc1ccc(C(O)Cn2ccn3nc(-c4cc(C)ccc4C)cc3c2=O)cc1OC` (stereo not given) the value was 879 s; for `COc1ccc(CNC(=O)C2(C)CCN(S(=O)(=O)c3cccc(Cl)c3C)CC2)cc1`, 1030 s.
In turn, `CC(C)c1ccc(S(=O)(=O)N2CCc3c(c(-c4nnc(-c5ccc(F)cc5)o4)nn3C)C2)cc1` yielded an RP-LC retention time of 1100 s.
For `Cc1nc(N2CCOCC2)c2c(C(=O)N3CCN(c4cccc(C)c4C)CC3)c(C)oc2n1`, the RP-LC retention time came to 1000 s.
For the compound `Cc1nc(-c2cn(C)c3ncccc23)sc1C(=O)NCc1ccccc1F`, the RP-LC retention time worked out at 874 s.
In turn, `O=C(Nc1cccc(Cl)c1F)c1cnc(-c2ccc(F)cc2)nc1-c1ccncc1` showed an RP-LC retention time of 972 s.
`COc1ccc(CNC(=O)CCc2nnc3c4cc(-c5ccccc5)nn4ccn23)cc1`: the RP-LC retention time was determined as 728 s.
`COC(=O)c1ccccc1NC(=O)c1cc(N2C(=O)CCS2(=O)=O)ccc1Cl` had an RP-LC retention time of 840 s.
As to `C#CCOCC1CCCN(S(=O)(=O)c2cc(F)ccc2OC)C1` (stereo not given), the RP-LC retention time was 871 s.
In turn, `CN(C)c1ccc(-c2nc3cnccn3c2Nc2ccc(F)cc2)cc1` gave an RP-LC retention time of 787 s.
As for `CCC(C)Nc1nc(N(C)C)nc(-n2cnc(SC)n2)n1` (stereo not given), the RP-LC retention time stood at 942 s.
Under `Cc1ccn2cc(C(=O)NCc3ccccc3Cl)nc2c1` stands 675 s.
As to `O=C(NCCc1ccco1)c1ccc2c(c1)NC(=O)C1CCCCN21` (stereo not given), the RP-LC retention time is 739 s.
Consider `Cc1ccc(-c2cc3c(N4CCC(C(=O)NC5CCCC5)CC4)nccn3n2)c(C)c1`, for which the RP-LC retention time worked out at 849 s.
The compound `Cc1noc2nc(C)n(CC(=O)NCCc3ccccc3)c(=O)c12` gave an RP-LC retention time of 752 s.
In the case of `CC(NC(=O)c1cnc(-c2ccccc2)nc1-c1ccncc1)c1ccc(F)cc1` (stereo not given), the RP-LC retention time came out at 868 s.
Turning to `CSc1cccc(NC(=O)CCc2c(-c3ccccc3)nc3ccccn23)c1`, the RP-LC retention time was determined as 691 s.
The compound `COc1ccccc1NC(=O)N(C)CCc1noc(COc2ccc(F)cc2)n1` gave an RP-LC retention time of 907 s.
`COc1ccc(-c2cn3c(CC(=O)Nc4ccc(F)c(F)c4)csc3n2)cc1OC` yielded an RP-LC retention time of 774 s.
Under `COc1cc2c(CCNC(C)=O)c[nH]c2cc1Cl` stands 754 s.
As for `CN(CC1CCOC1)S(=O)(=O)Cc1ccccc1F` (stereo not given), the RP-LC retention time came to 755 s.
Consider `Cc1cc(C)nc(SCC(=O)Nc2nc(-c3ccccc3)c(-c3ccccc3)o2)n1`, for which the RP-LC retention time turned out to be 1050 s.
The compound `COc1ccc(-c2cn3c(CC(=O)Nc4cc(C)ccc4C)csc3n2)cc1OC` returned an RP-LC retention time of 746 s.
`O=C(Cn1cc(C(=O)C2CC2)c2ccccc21)NCc1ccc2c(c1)OCCCO2` had an RP-LC retention time of 831 s.
As to `COc1ccccc1-c1cc2nc(C)cc(NCC3CCCO3)n2n1` (stereo not given), the RP-LC retention time worked out at 592 s.
On to `CCc1nc2c(c(=O)n1CC(=O)Nc1cc(C)ccc1C)CN(Cc1ccccc1)CC2`, for which the RP-LC retention time was 679 s.
`COc1ccc(S(=O)(=O)N2CCCC(C(=O)NC(C)(C)C)C2)cc1OC` (stereo not given): the RP-LC retention time stood at 707 s.
Compound `CCC(=O)N1CCc2cn(C)c3cccc(c23)C1` had an RP-LC retention time of 768 s.
The compound `Cn1nc(C(=O)N2CCC3(CC2)N=C(c2cccc(Br)c2)NO3)c2ccccc21` had an RP-LC retention time of 923 s.
Under `CCc1ccc(C2=C(C)C(N3CCCN(C(=O)C(C)CC)CC3)=NS2(=O)=O)cc1` (stereo not given) stands 888 s; under `CC(C)N1CCC(CC(=O)N2CCc3c(c(-c4nc(C5CC5)no4)nn3C)C2)CC1`, 612 s; under `CCS(=O)(=O)Nc1ccc(C2(C(=O)NCC(C)C)CCCCC2)cc1`, 879 s.
Under `Clc1ccc(-c2ccnc3nc(-c4ccccc4)nn23)cc1` stands 971 s; under `CCN1CCCn2cc(S(=O)(=O)NCc3ccc(OC)cc3)cc2C1=O`, 698 s.
`CC(=O)N1CCc2nn(CC(=O)N3CCN(c4ccccc4F)CC3)c(=O)cc2C1` displayed an RP-LC retention time of 652 s.
Take `CC(C)c1nc2ccc(C(=O)NCCN(C)C3CCCCC3)cc2o1`: the RP-LC retention time came to 656 s.
Turning to `CCn1ccc(C(=O)Nc2cccc(OCc3nnc(-c4ccc(OC)cc4)o3)c2)n1`, the RP-LC retention time is 891 s.
`CCc1ccc(S(=O)(=O)c2cnc(N3CCN(c4ccccc4OC)CC3)nc2N)cc1` returned an RP-LC retention time of 1080 s.
Compound `Cc1cc(NC(=O)C2CCN(C(=O)c3cc(-c4ccc5c(c4)OCO5)n[nH]3)CC2)no1` yielded an RP-LC retention time of 671 s.
As to `Cc1ccccc1OCC(=O)NC(C)c1ccccc1` (stereo not given), the RP-LC retention time was determined as 903 s.
`O=C(NC1CCCCC1)c1ccc2c(c1)NC(=O)C1CCCCN21` (stereo not given) came in with an RP-LC retention time of 807 s.
Consider `COCCc1noc(-c2cnc3nc(C)ccc3c2Nc2ccc(OC)cc2)n1`, for which the RP-LC retention time is 681 s.
For `Cc1cccc2nnc(N3CCCC(C(=O)N4CCN(C5CCCCC5)CC4)C3)n12` (stereo not given) the value was 570 s; for `CCc1nc2c(N)cccn2n1`, 597 s.
In the case of `Cc1ccc(-c2nnc(Cc3nc(-c4cccc(C(F)(F)F)c4)no3)o2)cc1`, the RP-LC retention time came out at 1160 s.
Under `Cc1cc(C(=O)N2CCCn3ccnc3C2C2CCCC2)on1` (stereo not given) stands 599 s.
